Test results published in the supplement of paper PMC8617591.

How the values were obtained:
[1] = tested on: Mycobacterium tuberculosis Erdman (autoluminescent); assay: total FIC50 (Loewe) at 50% inhibition, three-drug combination (log2); higher = more antagonistic
Method: (§1)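 DiaMOND equipotent three-drug combination dose responses (10 doses, 1.5- or 2-fold spacing, centred on IC90) against autoluminescent M. tuberculosis Erdman in 8 in vitro models. Read-out is OD600, or luminescence for the intracellular and dormancy models, normalised to untreated wells. Hill-fit Einf, AUC25 and GRinf are potency metrics; FIC50 and FIC90 are total Loewe fractional inhibitory concentrations as log2 (negative = synergy).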

[2] = tested on: Mycobacterium tuberculosis Erdman (autoluminescent); assay: total FIC90 (Loewe) at 90% inhibition, three-drug combination (log2); higher = more antagonistic
Method: as §1

[3] = tested on: Mycobacterium tuberculosis Erdman (autoluminescent); assay: Einf, fitted maximum growth inhibition of three-drug combination (fraction); higher = stronger maximal inhibition
Method: as §1

[4] = tested on: Mycobacterium tuberculosis Erdman (autoluminescent); assay: AUC25, normalised area under dose response up to IC25 (three-drug combination) (fraction (0-1)); higher = more potent at low dose
Method: as §1

[5] = tested on: Mycobacterium tuberculosis Erdman (autoluminescent); assay: GRinf, maximum normalised growth rate inhibition (three-drug combination) (unitless (-1 to 1)); higher = less effect (negative = killing)
Method: as §1

CC(C)/N=c1\cc2n(-c3ccc(Cl)cc3)c3ccccc3nc-2cc1Nc1ccc(Cl)cc1 [clofazimine] + CC(=O)NC[C@H]1CN(c2ccc(N3CCOCC3)c(F)c2)C(=O)O1 [linezolid] + CO[C@H]1/C=C/O[C@@]2(C)Oc3c(C)c(O)c4c(O)c(c(/C=N/N5CCN(C)CC5)c(O)c4c3C2=O)NC(=O)/C(C)=C\C=C\[C@H](C)[C@H](O)[C@@H](C)[C@@H](O)[C@@H](C)[C@H](OC(C)=O)[C@@H]1C [rifampicin]
Details | AUC25, [4] | Einf, [3] | GRinf, [5] | total FIC50, [1] | total FIC90, [2]
in vitro model: acidic pH 5.7, time point: constant (~7 days, model-specific) | 0.0866 | 0.853 | -0.0709 | 0.38 | –
in vitro model: acidic pH 5.7, time point: terminal (~4-5 doublings, model-specific) | 0.0808 | 0.981 | -0.119 | 0.419 | 0.256
in vitro model: intracellular J774, time point: constant = terminal | – | 0.941 | -0.215 | – | -0.471

Details | AUC25, [4] | Einf, [3] | GRinf, [5] | total FIC50, [1] | total FIC90, [2]
in vitro model: butyrate, time point: constant (~7 days, model-specific) | 0.103 | 0.922 | -0.0328 | 0.22 | 0.103
in vitro model: butyrate, time point: terminal (~4-5 doublings, model-specific) | 0.07 | 0.95 | 0.00888 | 0.26 | -0.0854
in vitro model: cholesterol 0.05 mM, time point: constant (~7 days, model-specific) | 0.14 | 0.687 | 0.0599 | -0.708 | –
in vitro model: cholesterol 0.05 mM, time point: terminal (~4-5 doublings, model-specific) | 0.132 | 0.908 | -0.188 | 4.59 | -0.0601
in vitro model: cholesterol-high 0.2 mM, time point: constant (~7 days, model-specific) | 0.13 | 0.963 | -0.755 | 0.342 | 0.45
in vitro model: cholesterol-high 0.2 mM, time point: terminal (~4-5 doublings, model-specific) | 0.107 | 0.995 | -0.935 | 0.34 | 0.174
in vitro model: dormancy (butyrate + nitrate, low O2), time point: constant (~7 days, model-specific) | 0.0831 | 0.908 | 0.229 | 1.29 | 0.832
in vitro model: dormancy (butyrate + nitrate, low O2), time point: terminal (~4-5 doublings, model-specific) | 0.0549 | 0.979 | -0.148 | 0.408 | 0.6
in vitro model: standard 7H9 glycerol, time point: constant = terminal | 0.0962 | 0.917 | 0.0708 | 0.0668 | 0.29
in vitro model: valerate, time point: constant (~7 days, model-specific) | 0.0981 | 0.885 | -0.0893 | 0.928 | –
in vitro model: valerate, time point: terminal (~4-5 doublings, model-specific) | 0.058 | 0.942 | -0.0199 | 0.756 | 0.805

CC(C)/N=c1\cc2n(-c3ccc(Cl)cc3)c3ccccc3nc-2cc1Nc1ccc(Cl)cc1 [clofazimine] + CC(=O)NC[C@H]1CN(c2ccc(N3CCOCC3)c(F)c2)C(=O)O1 [linezolid] + COc1c(N2C[C@@H]3CCCN[C@@H]3C2)c(F)cc2c(=O)c(C(=O)O)cn(C3CC3)c12 [moxifloxacin]
Details | AUC25, [4] | Einf, [3] | GRinf, [5] | total FIC50, [1] | total FIC90, [2]
in vitro model: acidic pH 5.7, time point: constant (~7 days, model-specific) | 0.0788 | 0.706 | -0.3 | -0.736 | –
in vitro model: acidic pH 5.7, time point: terminal (~4-5 doublings, model-specific) | 0.0696 | 0.915 | -0.183 | 0.837 | -0.131
in vitro model: intracellular J774, time point: constant = terminal | – | 0.859 | -0.214 | – | 0.527

Details | AUC25, [4] | Einf, [3] | GRinf, [5] | total FIC50, [1] | total FIC90, [2]
in vitro model: butyrate, time point: constant (~7 days, model-specific) | 0.113 | 0.956 | -0.279 | 0.741 | 1.3
in vitro model: butyrate, time point: terminal (~4-5 doublings, model-specific) | 0.0854 | 0.978 | -0.148 | 0.802 | 1.05
in vitro model: cholesterol 0.05 mM, time point: constant (~7 days, model-specific) | 0.141 | 0.693 | -0.0883 | 0.0515 | –
in vitro model: cholesterol 0.05 mM, time point: terminal (~4-5 doublings, model-specific) | 0.148 | 0.925 | -0.21 | 0.132 | 1.39
in vitro model: cholesterol-high 0.2 mM, time point: constant (~7 days, model-specific) | 0.139 | 0.935 | -1 | 0.411 | 0.869
in vitro model: cholesterol-high 0.2 mM, time point: terminal (~4-5 doublings, model-specific) | 0.127 | 1 | -1 | -0.0894 | 0.513
in vitro model: dormancy (butyrate + nitrate, low O2), time point: constant (~7 days, model-specific) | 0.0737 | 0.903 | 0.201 | 1.33 | 0.822
in vitro model: dormancy (butyrate + nitrate, low O2), time point: terminal (~4-5 doublings, model-specific) | 0.0474 | 0.983 | -0.18 | 1.18 | 0.998
in vitro model: standard 7H9 glycerol, time point: constant = terminal | 0.105 | 0.971 | -0.383 | 0.199 | 1.19
in vitro model: valerate, time point: constant (~7 days, model-specific) | 0.124 | 0.868 | -0.197 | 0.648 | –
in vitro model: valerate, time point: terminal (~4-5 doublings, model-specific) | 0.0951 | 0.919 | -0.0235 | 0.275 | 1.06
